# Data taken from patent publication US11197856B2, “Bicyclic compounds and methods for their use in treating autism” (priority 2013, dated 2021).
# What was measured:
# cerebellar explants = experiment: Cerebellar explants, glutamate/3-nitropropionic acid neurotoxicity; type: cell-based, Wistar rats
# Description: Cover slips were placed into a large Petri dish and washed in 70% alcohol for 5 minutes, then washed with Millipore H2O. The cover slips were air dried, and coated with Poly-D-Lysine (1 mg/ml stock solution in PBS, 90-100 μl) for 2 hours at 34° C.
# Postnatal day 8 Wistar rats were used for the study. The rats were sacrificed and placed in ice for 1 minute, decapitated and the cerebellum removed and placed on ice. Cerebellum tissue was placed in 1 ml of 0.65% glucose-supplemented PBS (10 μl 65% stock D (+)glucose/1 ml PBS) in a large Petri dish, chopped up into smaller sections and triturated with a 1 ml insulin syringe via a 23 G (0.4 mm) needle, and then squirted back into the glucose solution in the large Petri dish. The tissue was sieved through (125 μm pore size gauze) and centrifuged (2 minutes at 60 g) twice to exchange the medium into serum-free BSA-supplemented START V medium (Biochrom, Germany). The second centrifugation step was done with 1 ml of START V medium. The microexplants were reconstituted into 500 μl of START V medium and put on ice.
# Two hours after PDL-coating, the slides were washed with Millipore H2O and air dried. Each slide was placed into a small Petri dish (diameter: 35 mm) and 40 μl of START V/cell suspension was added. The tissue was incubated for 2 hours at 34° C. (settlement period). START V-medium (1 ml) was then added to the Petri dish and cultivated at 34° C. in the presence of 5% CO2 in air at 100% humidity for 48 hours.
# For the study, certain explant cultures were exposed to vehicle (PBS) only. In the first study (Study 1) 10 μl of toxin 1 (L-glutamate—100 mM in Millipore water; final concentration; 1 mM) and 10 μl of toxin 2 (3-nitropropionic acid—50 mM—pH 7—in Millipore water, final concentration: 0.5 mM) was applied simultaneously with the drug to be tested ([…]). In each case, the drugs were left in contact with the explants for the duration of the study.
# After explants were exposed to drugs for the study period, cells were then rinsed in PBS and then fixed in increasing concentrations of paraformaldehyde (500 μl of 0.4% PFA was applied; then 1.2% PFA; then 3% PFA and finally 4% PFA (each fixation step: 2-3 minutes). Finally, the microexplants were rinsed in PBS.
# Neurons in the explants were then evaluated for morphology (presence of neurites) and counted as live cells per microscopic field. Four fields displaying highest cell density were counted per cover slip and the data presented as mean±standard error of the mean (SEM); n=4 each. Statistical significance was evaluated by using the non-paired Student's t-test.
# [1] = tested on: animals with scopolamine-induced memory impairment; experiment: Morris Water Maze (MWM) test with scopolamine-induced memory impairment; type: in vivo, Wistar rats; settings: scopolamine 0.3 mg/kg i.p.; day 4 of acquisition
# Text: The first part of the study involved acute testing of cG-2-AllylP in the Morris Water Maze Memory (MWM) model. The MWM test is one of the most frequently used tests for assessing spatial memory in rats and is well recognized to accurately predict effects of disease and treatment on spatial memory generally. Therefore, the MWM test reflects effects of disease and treatment in human subjects. The standard procedure for MWM was followed. We used a circular swimming pool (80 cm depth×150 cm diameter) filled with opaque water, with the temperature maintained at 20° C. […] On days 1-4 of the experiment rats underwent memory acquisition trials with 6 trials (60 seconds each) in each day of testing (habituation phase). Latency to reach the platform was recorded and the daily reduction of average latency was used to measure the capability to learn where the hidden platform was. […] Experimental groups are detailed in the Table 4 below. On […], the probe MWM test was performed with the platform removed. There were 6 trials, each of maximum duration of 60s, at least 3 min rest between trials). […] Data was collected and analysed using Any-maze (v4.2) software. The data generated from behavioural tests was analysed using one-way ANOVA for determining the difference between the aged-groups. […]
smiles,measurement,setting,value
"C[C@@]12CCCN1C(=O)C1(CCCC1)NC2=O [Cyclic cyclopentyl-G-2MeP, (8aS)-Methyl-spiro[cyclopentane-1,3(4H)-tetrahydropyrrolo[1,2-a]pyrazine]-1,4(2H)-dione]",numbers of cells having neurites,cerebellar explants; administered simultaneously with glutamate,significantly increased the number of cells having neurites
same,glutamate-induced neurotoxicity,cerebellar explants; low doses (cG-2-AllylP: 100 pm to 10 nm),significant decrease in glutamate-induced neurotoxicity
"N[C@@H](CCC(=O)O)C(=O)O [Glutamate, L-glutamate, reference compound]",loss of cerebellar neurons having neurites,cerebellar explants; glutamate 1 mM vs vehicle-treated controls,~85%
"CN1[C@@H]2C[C@@H](OC(=O)[C@H](CO)c3ccccc3)C[C@H]1[C@@H]1O[C@@H]12 [scopolamine, reference compound]",time to platform,[1],approximately 208 % of control
